Measured values as given in PubChem BioAssay (NCI).
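Each compound was tested at five concentrations against cells in 96-well plates for 48 hours. The concentration for full growth arrest is given as TGI.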

Tests used:
Test in all cases: growth of human tumour cells (NCI), 48 h
[1] = tested on: ACHN renal
[2] = tested on: DU-145 prostate
[3] = tested on: NCI-H23 lung
[4] = tested on: CAKI-1 renal
[5] = tested on: UO-31 renal
[6] = tested on: SNB-75 CNS
[7] = tested on: A498 renal
[8] = tested on: SF-295 CNS
[9] = tested on: HS 578T breast
[10] = tested on: COLO 205 colon
[11] = tested on: A549 NSCLC

SMILES | TGI [1] | TGI [2] | TGI [3] | TGI [4] | TGI [5] | TGI [6] | TGI [7] | TGI [8] | TGI [9] | TGI [10] | TGI [11]
CC1=CC=CC(C)(C)CC1(O[Si](C)(C)C)C(F)(F)F (stereo not drawn) | > 100 µM | > 100 µM | > 100 µM | > 100 µM | > 100 µM | > 100 µM | > 100 µM | > 100 µM | > 100 µM | > 100 µM | > 100 µM
C/C(=N/NC(=S)Nc1cccc(C)c1)c1ccccn1 | 6.83 µM | 8.29 µM | 9.92 µM | 9.07 µM | 6 µM | 5.08 µM | 3.54 µM | 4.89 µM | 41.1 µM | 1.34 µM | 8.51 µM
Cc1ccc(C(=O)Nc2ccc(CP(=O)(O)O)cc2)cc1NC(=O)c1cccc(NC(=O)Nc2cccc(C(=O)Nc3cc(C(=O)Nc4ccc(CP(=O)(O)O)cc4)ccc3C)c2)c1 | > 100 µM | > 100 µM | > 100 µM | > 100 µM | > 100 µM | > 100 µM | > 100 µM | > 100 µM | > 100 µM | > 100 µM | > 100 µM
Cc1cc(O)cc(O)c1N=Nc1ccc([N+](=O)[O-])cc1 | 94.9 µM | 79.1 µM | 52 µM | 38.9 µM | 83.8 µM | 45.6 µM | 50.9 µM | > 100 µM | 73.7 µM | > 100 µM | > 100 µM
Cc1oc2nc(N(C)C)n3nnnc3c2c1C | > 100 µM | > 100 µM | > 100 µM | > 100 µM | > 100 µM | > 100 µM | > 100 µM | > 100 µM | > 100 µM | > 100 µM | > 100 µM
CC(=O)OCC1OC(n2c(=S)[nH]c(-c3ccccc3)c(C#N)c2=O)C(OC(C)=O)C(OC(C)=O)C1OC(C)=O (stereo not drawn) | > 100 µM | > 100 µM | > 100 µM | > 100 µM | > 100 µM | > 100 µM | > 100 µM | > 100 µM | > 100 µM | > 100 µM | > 100 µM
CCOc1ccc(N=C/C=C(\Cl)c2ccc3ccccc3c2)cc1 | 32.7 µM | 30.7 µM | 25.1 µM | 34 µM | 29.9 µM | 33.4 µM | > 94.5 µM | 36 µM | 82.2 µM | 37.7 µM | > 100 µM
CCOC(=O)c1cnc2[nH]ccn2c1=O | > 10 µM | > 10 µM | > 10 µM | > 10 µM | > 10 µM | > 10 µM | > 10 µM | > 10 µM | > 10 µM | > 10 µM | > 10 µM
CN(C)c1ccc(/C(Br)=C2\OC(=O)c3ccccc32)cc1 | > 100 µM | > 100 µM | > 100 µM | > 100 µM | > 100 µM | > 100 µM | > 100 µM | > 100 µM | > 100 µM | > 100 µM | > 100 µM
O=C(CCc1ccc(O)cc1)c1c(O)cc(O)cc1OC1OC(CO)C(O)C(O)C1O (stereo not drawn) | > 100 µM | > 100 µM | > 100 µM | > 100 µM | > 100 µM | > 100 µM | > 100 µM | > 100 µM | > 100 µM | > 100 µM | > 100 µM
C=CC/C(C(=O)OC)=C(/C(=O)OC)N(CCC)CCC | > 100 µM | > 100 µM | > 100 µM | > 100 µM | > 100 µM | > 100 µM | > 100 µM | > 100 µM | > 100 µM | > 100 µM | > 100 µM
N#CC(C#N)=C1CCCS(=O)(=O)c2ccccc21 | > 100 µM | > 100 µM | > 100 µM | > 100 µM | > 100 µM | > 100 µM | > 100 µM | > 100 µM | > 100 µM | > 100 µM | > 100 µM
c1ccc2c(c1)CCCN1CCc3ccccc3C21 (stereo not drawn) | > 100 µM | > 100 µM | > 100 µM | > 100 µM | > 100 µM | > 100 µM | > 100 µM | > 100 µM | > 100 µM | > 100 µM | > 100 µM
Cc1cc(C)c2c(n1)S(=O)(=O)N(CCCN1CCN(c3cccc(C(F)(F)F)c3)CC1)/C(=C(\O)c1ccc(Cl)cc1)C2=O | 13.8 µM | 19.9 µM | 14 µM | 8.77 µM | 10.8 µM | 8.04 µM | 16.9 µM | 14.2 µM | 56.8 µM | 3.58 µM | 13.1 µM
Cc1nc2cc(C(F)(F)F)ccc2[nH]c1=O | > 100 µM | > 100 µM | > 100 µM | > 100 µM | > 100 µM | > 100 µM | > 100 µM | > 100 µM | > 100 µM | > 100 µM | > 100 µM
CCOC(=O)C(=O)N1C(C)=C(C(=O)OCC)CC(C(=O)OCC)=C1C | > 100 µM | > 100 µM | > 100 µM | > 100 µM | > 100 µM | > 100 µM | > 100 µM | > 100 µM | > 100 µM | > 100 µM | > 100 µM
O=C1N[C@@H]2c3c(csc3Br)C(=O)[C@@H]2O1 | > 100 µM | > 100 µM | > 100 µM | 43.1 µM | 58.4 µM | > 100 µM | > 100 µM | > 100 µM | > 100 µM | > 100 µM | > 100 µM
Cc1cccc(C[C@@]2(SCc3ccccc3)C(C)(C)[C@@H]3CC[C@@]2(C)C3)n1 | 28.8 µM | 32.2 µM | 31.4 µM | 48.1 µM | 37.2 µM | 34.4 µM | 28.6 µM | 29.1 µM | 49.1 µM | 29 µM | 51.1 µM
O=[N+]([O-])C(=C(Sc1ccccc1)Sc1ccccc1)C(Cl)=C(Cl)Cl | 0.895 µM | 3.43 µM | 2.91 µM | 1.61 µM | 0.402 µM | 10.7 µM | 6.94 µM | 28.3 µM | 17.6 µM | 0.697 µM | 6.59 µM
O=C1/C(=C/c2ccc([N+](=O)[O-])cc2)CNC/C1=C\c1ccc([N+](=O)[O-])cc1 | 25.3 µM | 35.6 µM | 9.77 µM | 4.67 µM | 19.6 µM | 17 µM | 37.3 µM | 34.1 µM | > 64.9 µM | 28.3 µM | > 70.7 µM
Cc1nc2ccc([N+](=O)[O-])cc2c(=O)n1C(=S)Nc1cccc(Cl)c1 | 48.2 µM | > 100 µM | 38.1 µM | 56 µM | 21.5 µM | 40.8 µM | 45.9 µM | 53.6 µM | 72.4 µM | 31.6 µM | 92 µM
O=C1/C(=C/c2ccc(F)cc2)CNC/C1=C\c1ccc(F)cc1 | 3.18 µM | 3.96 µM | 3.5 µM | 3.4 µM | 3.3 µM | 18.3 µM | 4.33 µM | 6.19 µM | > 42.1 µM | 3.42 µM | 18.1 µM
O=C(O)CNC(=O)c1ccc([As](=O)(O)O)cc1 | > 100 µM | > 100 µM | > 100 µM | > 100 µM | > 100 µM | > 100 µM | > 100 µM | > 100 µM | > 100 µM | > 100 µM | > 100 µM
C(=Nc1ccc(-c2nc3ccccc3s2)cc1)c1ccco1 | > 100 µM | > 100 µM | > 100 µM | > 100 µM | > 100 µM | > 100 µM | 99.3 µM | 59.1 µM | > 100 µM | > 100 µM | > 100 µM
Cc1ccc(C2=Nc3c(c(C)nn3-c3ccccc3)N=C(C(=O)O)C2)cc1 | > 10 µM | > 10 µM | > 10 µM | > 10 µM | > 10 µM | > 10 µM | > 10 µM | > 10 µM | > 10 µM | > 10 µM | > 10 µM
O=C1OC[C@@H]2Cc3c([nH]c4ccccc34)[C@@H](c3ccc(O)cc3)N12 | > 74.2 µM | > 100 µM | 54.6 µM | 97.5 µM | > 100 µM | 69.4 µM | > 81 µM | > 83.4 µM | > 100 µM | 40.9 µM | 75.8 µM
O=C(O)c1ccc(NS(=O)(=O)Cc2ccccc2)cc1 | > 100 µM | > 100 µM | > 100 µM | > 100 µM | > 100 µM | > 100 µM | > 100 µM | > 100 µM | > 100 µM | > 100 µM | > 100 µM
CCOC(=O)C1C(=O)CC(O)(c2ccccc2)C(C(=O)OCC)C1c1ccc(OC)cc1 (stereo not drawn) | > 100 µM | > 100 µM | > 100 µM | > 100 µM | > 100 µM | 11.9 µM | > 100 µM | 17.5 µM | 53.7 µM | 47.9 µM | > 100 µM
